Where a SMILES comes first, the peptide text is derived from it. The star is where a group is joined. Cbz = O=C(OCc1ccccc1)*; CH2F = FC*
Assays:
U87 cells [1] = assay: MTT viability with inhibitors of phagosome formation plus G-TPP; format: cell-based, human; settings: inhibitor 1 hour then G-TPP, MTT after 16 hours
Description: FIG. 11A is a graph of the percent viability of U87 cells following incubation with inhibitors of phagosome formation, bafilomycin A (BF) or 3-methyladenine (3-MA), for 1 hour and treatment with G-TPP. MTT analysis was performed after 16 hours with MTT. The mean data±standard deviation are shown.
(§1) For autophagy, glioblastoma cells were transfected with an LC3-GFP cDNA by FuGENE HD (Roche), treated with vehicle, nontargeted 17-AAG, or G-TPP, and analyzed by fluorescence microscopy. […] An average of 200 cells was counted in 4-6 independent fields per condition. In some experiments, G-TPP-treated cells were incubated with pharmacologic inhibitors of autophagy, BF, or 3-MA, and analyzed after 16 hours for modulation of cell viability by MTT.

LN229 cells [2] = assay: Electron microscopy of treated cells; format: cell-based, human; settings: 5-10 μM, 16 hours
Description: Subconfluent monolayers of LN229 cells were incubated with PBS, pH 7.2, or G-TPP or nontargeted 17-AAG (5-10 μM) for 16 hours at 37° C. Cells were washed briefly in 0.1 M PBS, pH 7.4, fixed in buffered 2.5% glutaraldehyde (GA) with or without 4% formaldehyde (FA) or for 30 minutes at 22° C., post-fixed in 1% osmium tetroxide, and processed by standard methods for epoxy embedding. In some experiments, cells were fixed in buffered 3% FA with 0.1% GA for 25 minutes at 22° C., washed, quenched with NH4Cl, and dehydrated for embedding in LR White resin. Ultrathin sections on nickel grids were treated for heat-induced antigen retrieval and blocked with buffered 1% BSA, as described in published protocols (Yamashita et al., Methods Mol. Biol. 657:237-248, 2010). Samples were incubated with an antibody to COX IV, followed by a colloidal gold-conjugated (12 nm) secondary antibody of appropriate specificity (Jackson ImmunoResearch). Grids were briefly post-fixed with 2% GA, washed, air dried, and then exposed to osmium tetroxide vapors for 20 minutes. Ultrathin sections were stained with uranyl acetate and lead citrate before examination in a Philips CM10 transmission electron microscope.

[3] = test system: FLIP promoter in U251 cells; assay: FLIP luciferase promoter activity; format: cell-based, human
Description: FIG. 13A is a graph showing the RLU of U251 cells from luciferase produced from a FLIP promoter following no treatment or treatment with two different concentrations of G-TPP. The luciferase data are normalized to β-galactosidase. The mean data±standard deviation are shown.
(§2) FIG. 14B is a graph showing the RLU of U251 cells from luciferase produced from a NF-κB or cFLIP promoter following treatment with non-targeted 17-AAG. Cells were analyzed after 9 hours for luciferase activity. The mean data±SEM of replicates of a representative experiment are shown.
(§3) Tumor cell types were transfected with NF-κB (Mehrota et al., Cancer Cell 17:53-64, 2010), p53, or FLIP luciferase promoter construct (pGL3-FLIP1500; Addgene #16016) using FuGENE HD. After 24 hours at 37° C., cells were stimulated with G-TPP or 17-AAG (0-10 μM) for 6 hours, harvested, and analyzed for β-galactosidase-normalized luciferase activity in a luminometer, as described (Mehrota et al., Cancer Cell 17:53-64, 2010). In some experiments, β-galactosidase-normalized NF-κB promoter activity was examined after cell stimulation with TNF-α, as described (Mehrota et al., Cancer Cell 17:53-64, 2010).

[4] = test system: NF-κB promoter in U251 cells; assay: NF-κB luciferase promoter activity; format: cell-based, human; settings: U251, luciferase normalized to β-galactosidase
Description: FIG. 12A is a graph showing the relative light units (RLU) of U251 cells from luciferase produced from a NF-κB promoter following no treatment or treatment with G-TPP or TRAIL. The luciferase data are normalized to β-galactosidase. TRAIL (800 ng/mL) was used as a control. The mean data±standard deviation are shown.
FIG. 12B is a graph showing the RLU of U251 cells from luciferase produced from a NF-κB promoter following no treatment or treatment with G-TPP in the presence or absence of TNF-α. The luciferase data are normalized to β-galactosidase. The mean data±standard deviation are shown.
as §2, §3

LN229 cells [5] = assay: Western blotting of caspase, BID and PARP cleavage; format: cell-based, human; settings: 5 μM TPP-GA, 200 ng/ml TRAIL, alone or combined, 16 hours
Description: (§4) Western blotting was employed to elucidate the proteolytic mechanism in TRAIL and TRAIL+Gamitrinib-induced apoptosis. Since Gamitrinibs augment TRAIL-induced apoptosis, the activation/cleavage of caspases-3, -7, -8, -9, BH3 interacting domain death agonist (BID), and Poly-ADP-ribose polymerase (PARP) was examined. […] The time course of activation/cleavage of caspases-3, -7, -8, -9, BID, and PARP over 24 hours was also examined following treatment of LN229 (FIG. 3C) or U251 (FIG. 3D) cells with 5 μM TPP-GA and 200 or 20 ng/ml TRAIL, respectively.

U251 cells [6] = assay: Western blotting of caspase, BID and PARP cleavage; format: cell-based, human; settings: 5 μM TPP-GA, 20 ng/ml TRAIL, alone or combined, 16 hours
Description: as §4

U87 cells [7] = assay: LC3 immunoblot (autophagy); format: cell-based, human; settings: over time
Description: FIG. 10A is an immunoblot of lysates from U87 cells following treatment with G-TPP for the indicated periods of time. The position of the unmodified (I) and lipidated form (II) form of LC3 are indicated.
(§5) The various cell types were seeded in triplicate onto 96-well plates at 2×10^3 cells/well, treated with vehicle, G-TPP, or nontargeted 17-AAG (0-20 μM) for up to 24 hours, and quantified for metabolic activity by a 3(4,5-dimethyl-thyazoyl-2-yl)2,5 diphenyltetrazolium bromide (MTT) colorimetric assay with absorbance at 405 nm, as described in Plescia et al. (Cancer Cell 7:457-468, 2005). Changes in protein expression under the various combination regimens were determined by immunoblotting.

[8] = test system: RelB, Bcl-3 mRNA in LN229 cells; assay: RelB and Bcl-3 mRNA expression; format: cell-based, human
From the text: FIG. 13C is a Northern blot showing the PCR-amplified expression of RelB, Bcl-3, and GAPDH mRNA in LN229 cells following treatment with G-TPP.

FLIP in LN229 cells = assay: FLIP protein immunoblot; format: cell-based, human
Description: FIG. 13B is two immunoblots lysate from LN229 cells following treatment with G-TPP. The top immunoblot is a dose response experiment. The bottom immunoblot is a time-course experiment. FLIP (L) is the FLIP long form. FLIP(S) is the FLIP short form.
as §5

[9] = test system: p53 promoter in MCF-7 cells; assay: p53 luciferase promoter activity; format: cell-based, human; settings: MCF-7, after 5 hours
Description: FIG. 14A is a graph showing the RLU of MCF-7 cells from luciferase produced from a p53 promoter following no treatment or treatment with G-TPP, Eto 10, Eto 10 and G-TPP, Eto 20, and Eto 20 and G-TPP. Cells were analyzed after 5 hours for β-galactosidase-normalized p53 luciferase promoter activity.
as §3

U251 cells [10] = assay: Annexin V / propidium iodide flow cytometry; format: cell-based, human; settings: 5 μM TPP-GA, 25 ng/ml TRAIL, alone or combined
U251 cells [11] = assay: LC3-GFP fluorescence microscopy (autophagy); format: cell-based, human; settings: 16 hours
Description: FIG. 10B is a fluorescence photomicrograph and a graph of the percentage of fluorescent U251 cells following transfection of U251 cells with LC3-GFP and treatment for 16 hours with vehicle (left photomicrograph) or G-TPP (right photomicrograph).
as §1

[12] = test system: U87-luc glioblastoma cells; assay: Orthotopic glioblastoma tumor model, bioluminescence imaging; format: in vivo; settings: CB17 SCID/beige mice; TRAIL 2 μg intracranially, TPP intraperitoneally
Description: Since Gamitrinib-TPP dramatically sensitizes cancer cells in vitro it was of highest interest to assess efficacy in vivo. To this end, efficacy of TRAIL, TPP, or the combination of both was determined in an orthotopic glioblastoma tumor model. Twenty nude mice were intracranially injected with U87-luc glioblastoma cells. U87 glioblastoma cells stably transfected with a luciferase expression plasmid (U87-Luc) were suspended in sterile PBS, pH 7.2, and stereotactically implanted (1×10^5) in the right cerebral striatum of immunocompromised CB17 SCID/beige female mice (Charles River Laboratories). Treatment group 1 received only vehicle solutions. Group 2 received TRAIL intracranially (2 μg) and carrier solution intraperitoneally. Group 3 received PBS intracranially and TPP intraperitoneally in a carrier solution consisting of 20% Cremophor in PBS. Group 4 received both TRAIL and TPP. Tumor growth was assessed after each intracranial injection by application of 58 mg/kg D-luciferin and subsequent bioluminescence imaging using a Xenogen In Vivo Imaging System. […]
Five days after injection of U87-luc glioblastoma cells, the mice were scanned, quantified and according to signal strength randomized into 4 treatment groups (Group 1: Vehicle, Group 2: TRAIL, Group 3: TPP, Group 4: TRAIL+TPP) (FIGS. 5A, 6A).

cancer cells = assay: Pan-caspase inhibitor effect on TRAIL+Gamitrinib apoptosis and caspase cleavage; format: cell-based
Description: as §4

| Compound | glioblastoma cell death induced by suboptimal concentrations of G-TPP (MTT) (U87 cells [1]) | cell ultrastructure (electron microscopy) (LN229 cells [2]) | FLIP promoter activity [3] | NF-κB-mediated gene expression, constitutive [4] | cleavage of caspase-3 or -7 (LN229 cells [5]) | cleavage of caspase-3 or -7 (U251 cells [6]) | Annexin V positive and PI-negative tumor cells (apoptosis) (U251 cells [10]) | tumor size (bioluminescence) [12] | also measured |
| --- | --- | --- | --- | --- | --- | --- | --- | --- | --- |
| Cn1cnc(N)c2ncnc1-2 [3-methyladenine] | enhanced glioblastoma cell death | – | – | – | – | – | – | – | – |
| C=CCNC1=C2C[C@@H](C)C[C@H](OC)[C@H](O)[C@@H](C)/C=C(\C)[C@H](OC(N)=O)[C@@H](OC)/C=C\C=C(/C)C(=O)NC(=CC1=O)C2=O [Gamitrinib 17-AAG, 17-allylamino demethoxygeldanamycin, reference compound] | – | unremarkable | no effect | no effect | – | – | – | – | – |
| CO[C@H]1/C=C\C=C(/C)C(=O)NC2=CC(=O)C(NCCCCCC[P+](c3ccccc3)(c3ccccc3)c3ccccc3)=C(C[C@@H](C)C[C@H](OC)[C@H](O)[C@@H](C)/C=C(\C)[C@@H]1OC(N)=O)C2=O [Gamitrinib-TPP, triphenylphosphonium geldanamycin] | – | became completely filled with cytoplasmic vacuoles | rapid downregulation | complete ablation | did not or only weakly induce cleavage of caspase-3 or -7 | did not or only weakly induce cleavage of caspase-3 or -7 | no significant effects | did not show any significant reduction in tumor size | LC3 lipidated form (immunoblot) (U87 cells [7]): accumulated a lapidated form of the ubiquitin-like protein, light chain 3 (LC3); RelB and bcl-3 mRNA [8]: rapid downregulation; FLIP protein expression (FLIP in LN229 cells): rapid downregulation; etoposide-mediated induction of p53 luciferase promoter activity [9]: unaffected; NF-κB-mediated gene expression after stimulation with TNF-α [4]: complete ablation; LC3-GFP fluorescence pattern (U251 cells [11]): exhibited a punctate fluorescence pattern |
| CO/C1=C\C(C)=C\[C@@H](C)[C@@H](O)[C@@H](C)C/C(C)=C/C=C/[C@H](OC)[C@@H]([C@@H](C)[C@@H](O)[C@H](C)[C@@]2(O)C[C@@H](O)[C@H](C)[C@@H](C(C)C)O2)OC1=O [bafilomycin A] | enhanced glioblastoma cell death | – | – | – | – | – | – | – | – |
| COC(=O)CC(NC(=O)C(C)NC(=O)C(NC(=O)OCc1ccccc1)C(C)C)C(=O)CF (stereo not drawn) [zVAD-fmk, benzyloxycarbonyl-Val-Ala-Asp(OMe)-fluoromethyl-ketone] (Cbz-Val-Ala-Asp(OMe)-CH2F; configuration not given here) | – | – | – | – | – | – | – | – | effect on cleavage of caspases induced by the combination of TRAIL and TPP-GA (cancer cells; Western blotting): abolished cleavage of caspases; effect on TRAIL+Gamitrinib mediated apoptosis (cancer cells; pan-caspase inhibitor added to the combination): significantly attenuated |
| TRAIL: Recombinant TRAIL obtained from Peprotech; death receptor agonist | – | – | – | – | did not or only weakly induce cleavage of caspase-3 or -7 | did not or only weakly induce cleavage of caspase-3 or -7 | no significant effects | did not show any significant reduction in tumor size | – |
